Experimental findings from patent US8513381B2, “Melanocortin analogs with antimicrobial activity” (Fondazione IRCCS Ca' Granda-Ospedale Maggiore Policlinico, priority 2009, dated 2013) are described below.

In brackets after ≈: the same amount, converted by molar mass. Like-named read-outs stand apart in the source and are kept apart here. Non-standard residues stand in square brackets, D forms with d. Residues, ends and D or L forms follow the SMILES beside them. d2Nal = N[C@H](Cc1ccc2ccccc2c1)C(=O)O; Aib = CC(C)(N)C(=O)O

One test concerns C. albicans. It is filed as cell-based, Candida albicans. The method, then: (§1) Two Candida albicans isolates were purchased from the ATCC (No. 24433 and 76615). The other yeast isolates were obtained from the collection of Fondazione Ospedale Maggiore Policlinico, Mangiagalli e Regina Elena, Milano. The collection included C. albicans (7 isolates), C. glabrata (3 isolates), and C. krusei (3 isolates). Antifungal susceptibility testing was performed using the broth microdilution method according to the NCCLS M27-A guidelines (National Committee for Clinical Laboratory Standards. 1997, Reference method for broth dilution antifungal susceptibility testing of yeasts and approved standard NCCLS document M27-A. National Committee for Clinical Laboratory Standards, Wayne, Pa.). The organisms were removed from frozen glycerol stock (10% sterile glycerol suspensions stored at −70° C.), subcultured onto Sabouraud's dextrose plates, and incubated at 35° C. After 48 h of incubation, the plates were inspected for purity. To prepare stationary growth phase yeast, a colony was taken from the agar plate and transferred into 5 mL Sabouraud-dextrose broth and incubated for 48 h at 35° C. Cells were centrifuged at 1,000×g for 10 min and the pellet was washed twice with distilled water. Cells were counted and suspended in RPMI 1640 medium buffered to pH 7.0 with 0.165 mol l^−1 morpholinepropanesulphonic acid (MOPS) buffer (Sigma) to obtain the two times test inoculum (1×10^3 to 5×10^3 CFU/mL). Each well of 96 U-shaped well-plates received 100 μl of each antifungal peptides in concentrations from 10^−4 to 7.8×10^−7 M and 100 μl of the two-times inoculum to a final yeast concentration of 0.5×10−[…] cells ml^−1
(§2) The MIC90, i.e. the minimum inhibitory concentrations endpoint determined as 90% reduction in turbidity measured using a spectrophotometer (Titertek multiscan at 690 nm wave length).

The test system of the next test is C. glabrata. It is filed as cell-based, Candida glabrata. The method, then:
as §1, §2

In another test the test system is C. krusei. It counts as cell-based, Candida krusei. Here is the method: as §1, §2

With `CC(C)[C@H](NC(=O)[C@H](Cc1ccccc1)NC(=O)[C@H](CCCCN)NC(=O)C(C)(C)NC(=O)[C@H](Cc1c[nH]c2ccccc12)NC(=O)[C@H](CCCNC(=N)N)NC(=O)[C@@H](Cc1ccc2ccccc2c1)NC(=O)[C@@H](N)Cc1c[nH]cn1)C(N)=O` [MSH0702, H-His-D(2)-Nal-Arg-Trp-Aib-Lys-Phe-Val-NH2] (H-H[d2Nal]RW[Aib]KFV-NH2), the “MIC 90 at 48 hours” value is 115 µg/mL (≈ 99.7 µM) with C. albicans; “no” in the test with C. albicans (C. albicans 000954, 35° C.); “no” in the test on C. albicans (C. albicans 983201-R1, 35° C.); “no” in the test on C. albicans (C. albicans 991185, 35° C.); “no” against C. albicans (C. albicans 994199, 35° C.); “no” with C. albicans (C. albicans 995147, 35° C.). Also, the “MIC 90 at 48 hours” value against C. albicans (C. albicans 995439, 35° C.) is listed as “no”; in the test with C. albicans (C. albicans ATCC 24433, 35° C.) it was “no”; in the test on C. albicans (C. albicans ATCC 76615, 35° C.), “no”; in the test on C. glabrata (C. glabrata 18012, 35° C.) it was “no”; against C. glabrata (C. glabrata 995651, 35° C.) it was “no”; in the test on C. glabrata (C. glabrata 995667, 35° C.), “no”. Besides, in the test with C. krusei, the “MIC 90 at 48 hours” value came to 115 µg/mL (≈ 99.7 µM).

As to “H-His-D(2)-Nal-Arg-Trp-β-AA-Lys-Phe-Val-NH2 [MSH0710]”, the “MIC 90 at 48 hours” value in the test on C. albicans (C. albicans 000954, 35° C.) is given as “no”; in the test with C. albicans (C. albicans 011587, 35° C.), “no”; in the test on C. albicans (C. albicans 983201-R1, 35° C.) it was “no”; in the test with C. albicans (C. albicans 991185, 35° C.), “no”; against C. albicans (C. albicans 994199, 35° C.), “no”; in the test on C. albicans (C. albicans 995147, 35° C.), “no”. Also, the “MIC 90 at 48 hours” value against C. albicans (C. albicans 995439, 35° C.) is recorded as “no”; against C. albicans (C. albicans ATCC 24433, 35° C.), “no”; against C. albicans (C. albicans ATCC 76615, 35° C.) it was “no”; in the test with C. glabrata (C. glabrata 18012, 35° C.), “no”; in the test with C. glabrata (C. glabrata 995651, 35° C.), “no”; against C. glabrata (C. glabrata 995667, 35° C.), “no”. Besides, the “MIC 90 at 48 hours” value was “no” in the test on C. krusei (C. krusei 004490, 35° C.); “no” against C. krusei (C. krusei 991388, 35° C.); “no” in the test on C. krusei (C. krusei 995668, 35° C.).

Consider “H-His-D(2)-Nal-Arg-Trp-Ala-Lys-Phe-Val-NH2 [MSH0703]”, for which the “MIC 90 at 48 hours” value against C. albicans (C. albicans 000954, 35° C.) is “no”; with C. albicans (C. albicans 011587, 35° C.) it was “no”; with C. albicans (C. albicans 983201-R1, 35° C.), “no”; in the test with C. albicans (C. albicans 991185, 35° C.) it was “no”; with C. albicans (C. albicans 994199, 35° C.), “no”; in the test with C. albicans (C. albicans 995147, 35° C.) it was “no”. Besides, the “MIC 90 at 48 hours” value against C. albicans (C. albicans 995439, 35° C.) was “no”; in the test on C. albicans (C. albicans ATCC 24433, 35° C.) it was “no”; with C. albicans (C. albicans ATCC 76615, 35° C.), “no”; in the test with C. glabrata (C. glabrata 18012, 35° C.), “no”; against C. glabrata (C. glabrata 995651, 35° C.) it was “no”; in the test with C. glabrata (C. glabrata 995667, 35° C.) it was “no”. Also, the “MIC 90 at 48 hours” value with C. krusei (C. krusei 004490, 35° C.) was “no”; against C. krusei (C. krusei 991388, 35° C.) it was “no”; in the test with C. krusei (C. krusei 995668, 35° C.), “no”.

Consider “H-His-D(2)-Nal-Arg-Trp-Gly-Gly-Lys-Phe-Val-NH2 [MSH0701]”, for which the “MIC 90 at 48 hours” value was “no” against C. albicans (C. albicans 000954, 35° C.); “no” in the test on C. albicans (C. albicans 011587, 35° C.); “no” in the test with C. albicans (C. albicans 983201-R1, 35° C.); “no” with C. albicans (C. albicans 991185, 35° C.); “no” in the test with C. albicans (C. albicans 994199, 35° C.); “no” against C. albicans (C. albicans 995147, 35° C.). The “MIC 90 at 48 hours” value in the test with C. albicans (C. albicans 995439, 35° C.) was “no”; in the test with C. albicans (C. albicans ATCC 24433, 35° C.) it was “no”; in the test with C. albicans (C. albicans ATCC 76615, 35° C.) it was “no”; against C. glabrata (C. glabrata 18012, 35° C.) it was “no”; against C. glabrata (C. glabrata 995651, 35° C.) it was “no”; against C. glabrata (C. glabrata 995667, 35° C.), “no”. The “MIC 90 at 48 hours” value in the test with C. krusei (C. krusei 004490, 35° C.) is “no”; against C. krusei (C. krusei 991388, 35° C.) it was “no”; in the test with C. krusei (C. krusei 995668, 35° C.) it was “no”.

Turning to `CC(C)[C@H](NC(=O)[C@H](Cc1ccccc1)NC(=O)[C@H](CCCCN)NC(=O)[C@H](Cc1ccccc1)NC(=O)[C@H](Cc1c[nH]c2ccccc12)NC(=O)[C@H](CCCNC(=N)N)NC(=O)[C@@H](Cc1ccc2ccccc2c1)NC(=O)[C@@H](N)Cc1c[nH]cn1)C(N)=O` [MSH0713, H-His-D(2)-Nal-Arg-Trp-Phe-Lys-Phe-Val-NH2] (H-H[d2Nal]RWFKFV-NH2), the “MIC 90 at 48 hours” value was “no” with C. glabrata (C. glabrata 18012, 35° C.); “no” against C. glabrata (C. glabrata 995651, 35° C.); “no” in the test on C. glabrata (C. glabrata 995667, 35° C.); 122 µg/mL (≈ 100 µM) in the test on C. krusei; “no” against C. krusei (C. krusei 995668, 35° C.).
